Data published in patent US20030232986A1, “Inhibitors of caspases” (Vertex Pharmaceuticals Incorporated, priority 1998, published 2003).

What was measured:
Caspase-1 = molecular target: T1, Caspase-1 (Homo sapiens, UniProt P29466); assay: Caspase-1 enzyme inhibition (Ki); assay type: biochemical; conditions: substrate Suc-YVAD-pNA 80 μM, 37° C., pH 7.5
T1 sequence (P29466 120-297 limits assumed): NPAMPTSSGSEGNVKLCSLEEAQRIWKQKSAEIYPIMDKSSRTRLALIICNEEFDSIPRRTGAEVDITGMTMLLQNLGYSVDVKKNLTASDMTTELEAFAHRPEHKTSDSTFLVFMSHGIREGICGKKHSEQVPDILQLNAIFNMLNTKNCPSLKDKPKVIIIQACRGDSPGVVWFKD
T1 sequence (P29466 317-404 limits assumed): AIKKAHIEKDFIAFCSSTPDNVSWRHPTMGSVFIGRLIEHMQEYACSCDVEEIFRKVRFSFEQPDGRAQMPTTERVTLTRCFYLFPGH
Summary of the method: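 Ki obtained by fitting rate versus inhibitor concentration to the Morrison tight-binding equation for competitive inhibitors, with pNA release read at 405 nm at 37 °C. Substrate Suc-YVAD-pNA (80 μM final) added after 15 min enzyme–inhibitor preincubation in Tris pH 7.5 buffer with DTT and CHAPS.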

[1] = tested on: Human whole blood, IL-1β production; assay: Whole blood assay for IL-1β production; assay type: cell-based; conditions: LPS-stimulated whole blood, IL-1β by ELISA
Summary of the method: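 LPS-stimulated (5.0 ng/ml final) human whole blood incubated with test compound in saline (or plasma/PBS-5% DMSO for hydrophobic compounds) at 30° C for 16-18 hr. Plasma IL-1β then measured by ELISA at 1:200 dilution, against no-LPS, no-inhibitor and vehicle controls.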

[2] = Single pass perfusion in rat: GI wall and liver metabolism, biliary excretion; assay type: in vitro ADME; conditions: for f (g) Xf (h): GI wall metabolism f(g) x liver metabolism f(h)
Method: Single pass perfusion studies in rat were performed to assess gastrointestinal (GI) wall metabolism (f(g)), liver metabolism (f(h)), and biliary excretion. The method used has been described in Pang, C. S., J. Pharmacol. Exp. Therapeutics, 333, pp. 788-798 (1984).

[3] = tested on: Human Peripheral Blood Mononuclear Cells (PBMC), mature IL-1β; assay: PBMC cell assay: IL-1β assay with human peripheral blood mononuclear cells; assay type: cell-based; conditions: LPS-stimulated human PBMC, mature IL-1β in supernatant by ELISA
Summary of the method: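 Donor PBMC (suspension at 6×10^6 cells/ml) or adherent-enriched monocytes were stimulated with 5 ng/ml LPS (final) alongside 5–6 compound dilutions bracketing the ICE Ki, at 0.1% DMSO final, for 16–18 hr at 37° C, 5% CO2. Mature IL-1β in supernatants was measured by ELISA; IC50 was calculated relative to LPS-only controls.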

Ki (Caspase-1) | IC50 [1] | Biliary Excretion [2] | f (g) Xf (h) [2] | SMILES | IC50 [3]
0.01 to 1 µM | 2.5 to 7.5 µM | C (Category “C” indicates >10%) | C (Category “C” indicates 0.5-0.75) | COc1cc(N)c(Cl)cc1C(=O)N[C@@H](C)C(=O)N1CCC[C@H]1C(=O)N[C@H](C=O)CC(=O)O [Example 7ac] | –
< 0.01 µM | < 2.5 µM | C (Category “C” indicates >10%) | C (Category “C” indicates 0.5-0.75) | C[C@H](NC(=O)c1ccc(N)c(Cl)c1)C(=O)N1CCCC[C@H]1C(=O)N[C@H](C=O)CC(=O)O [Example 25d] | –
< 0.01 µM | > 7.5 µM | B (Category “B” indicates 5-10%) | C (Category “C” indicates 0.5-0.75) | CC(=O)Nc1ccc(C(=O)N[C@@H](C)C(=O)N2CCCC[C@H]2C(=O)N[C@H](C=O)CC(=O)O)cc1Cl [Example 25e] | –
< 0.01 µM | < 2.5 µM | – | – | CC(C)[C@H](NC(=O)c1nccc2ccccc12)C(=O)N1C[C@H](c2ccccc2)C[C@H]1C(=O)N[C@H](C=O)CC(=O)O [Example 26h] | < 0.5 µM
0.01 to 1 µM | < 2.5 µM | A (category “A” indicates <5%) | B (Category “B” indicates 0.25-0.49) | COc1cc(N)c(Cl)cc1C(=O)N[C@@H](C)C(=O)N1CC(F)(F)C[C@H]1C(=O)N[C@H](C=O)CC(=O)O [Example 27b] | –
< 0.01 µM | > 7.5 µM | – | – | CC(C)[C@H](NC(=O)c1nccc2ccccc12)C(=O)N1CSC(C)(C)[C@H]1C(=O)N[C@H](C=O)CC(=O)O [Example 28c] | 0.5 to 1 µM
< 0.01 µM | < 2.5 µM | – | – | C[C@H](NC(=O)c1nccc2ccccc12)C(=O)N[C@@H](C)C(=O)N[C@H](C=O)CC(=O)O [Example 29c] | 0.5 to 1 µM
< 0.01 µM | < 2.5 µM | – | – | C[C@H](NC(=O)c1cccc2ccccc12)C(=O)N[C@@H](C)C(=O)N[C@H](C=O)CC(=O)O [Example 29d] | 0.5 to 1 µM
< 0.01 µM | < 2.5 µM | – | – | Cc1cc(C(=O)N[C@H](C(=O)N[C@@H](C)C(=O)N[C@H](C=O)CC(=O)O)C(C)C)cc(C)c1O [Example 29e] | < 0.5 µM
< 0.01 µM | < 2.5 µM | – | – | Cc1cc(C(=O)N[C@@H](C)C(=O)N[C@@H](C)C(=O)N[C@H](C=O)CC(=O)O)cc(C)c1O [Example 29h] | < 0.5 µM
< 0.01 µM | < 2.5 µM | – | – | CC(C)[C@H](NC(=O)c1cc2ccccc2[nH]1)C(=O)N[C@@H](C)C(=O)N[C@H](C=O)CC(=O)O [Example 29i] | < 0.5 µM
< 0.01 µM | < 2.5 µM | – | – | C[C@H](NC(=O)[C@@H](NC(=O)c1cc2ccccc2[nH]1)C(C)(C)C)C(=O)N[C@H](C=O)CC(=O)O [Example 29j] | 0.5 to 1 µM
< 0.01 µM | < 2.5 µM | – | – | C[C@H](NC(=O)[C@@H](NC(=O)c1cccc2ccccc12)C(C)(C)C)C(=O)N[C@H](C=O)CC(=O)O [Example 29k] | < 0.5 µM
0.01 to 1 µM | < 2.5 µM | – | – | CC(C)[C@H](NC(=O)c1ccc(O)cc1)C(=O)N[C@@H](C)C(=O)N[C@H](C=O)CC(=O)O [Example 29l] | 0.5 to 1 µM
0.01 to 1 µM | 2.5 to 7.5 µM | A (category “A” indicates <5%) | C (Category “C” indicates 0.5-0.75) | COc1ccc(C(=O)N[C@H](C(=O)N[C@@H](C)C(=O)N[C@H](C=O)CC(=O)O)C(C)C)cc1 [Example 29n] | –
0.01 to 1 µM | < 2.5 µM | A (category “A” indicates <5%) | C (Category “C” indicates 0.5-0.75) | COc1c(C)cc(C(=O)N[C@@H](C)C(=O)N[C@@H](C)C(=O)N[C@H](C=O)CC(=O)O)cc1C [Example 29o] | –
< 0.01 µM | < 2.5 µM | C (Category “C” indicates >10%) | B (Category “B” indicates 0.25-0.49) | COc1c(C)cc(C(=O)N[C@H](C(=O)N[C@@H](C)C(=O)N[C@H](C=O)CC(=O)O)C(C)C)cc1C [Example 29p] | –
< 0.01 µM | < 2.5 µM | A (category “A” indicates <5%) | C (Category “C” indicates 0.5-0.75) | C[C@H](NC(=O)c1ccc(N)c(Cl)c1)C(=O)N[C@@H](C)C(=O)N[C@H](C=O)CC(=O)O [Example 29q] | –
< 0.01 µM | < 2.5 µM | B (Category “B” indicates 5-10%) | C (Category “C” indicates 0.5-0.75) | CC(C)[C@H](NC(=O)c1ccc(N)c(Cl)c1)C(=O)N[C@@H](C)C(=O)N[C@H](C=O)CC(=O)O [Example 29r] | –
0.01 to 1 µM | 2.5 to 7.5 µM | – | – | CC(=O)NC(C(=O)N1N=C(C(C)(C)C)SC1C(=O)NC(C=O)CC(=O)O)C(C)C (stereo not shown) [Example 42, 3-{[3-(2-acetylamino-3-methyl-butyryl)-5-tert-butyl-2,3-dihydro-[1,3,4]thiadiazole-2-carbonyl]-amino)-4-oxo-butyric acid] | > 2 µM
< 0.01 µM | < 2.5 µM | – | – | CC(C)C(NC(=O)c1ccc(N)c(Cl)c1)C(=O)N1CCCC1C(=O)NC(C=O)CC(=O)O (stereo not shown) [Example 61, 3-((1-[2-(4-Amino-3-chloro-benzoylamino)-3-methyl-butyryl]-pyrrolidine-2-carbonyl}-amino)-4-oxo-butyric acid] | 0.5 to 1 µM
0.01 to 1 µM | 2.5 to 7.5 µM | – | – | C[C@H](NC(=O)c1ccccn1)C(=O)N1CCC[C@H]1C(=O)N[C@H](C=O)CC(=O)O [Example 122e] | 1 to 2 µM
< 0.01 µM | < 2.5 µM | – | – | C[C@H](NC(=O)c1cc(Cl)c(N)c(Cl)c1)C(=O)N1CCC[C@H]1C(=O)N[C@H](C=O)CC(=O)O [Example 122g, 3-({1-[2-(4-Amino-3,5-dichloro-benzoylamino)-propionyl]-pyrrolidine-2-carbonyl}-amino)-4-oxo-butyric acid] | 0.5 to 1 µM
0.01 to 1 µM | < 2.5 µM | – | – | CC(C)Oc1cccc(C(=O)N[C@@H](C)C(=O)N2CCC[C@H]2C(=O)N[C@H](C=O)CC(=O)O)c1 [Example 122h, 3-({1-[2-(3-Isopropoxy-benzoylamino)-propionyl]-pyrrolidine-2-carbonyl}-amino)-4-oxo-butyric acid] | 1 to 2 µM
< 0.01 µM | < 2.5 µM | – | – | COc1ccc(C(=O)N[C@@H](C)C(=O)N2CCC[C@H]2C(=O)N[C@H](C=O)CC(=O)O)cc1OCc1ccccc1 [Example 122i, 3-({1-[2-(3-benzyloxy-4-methoxy-benzoylamino)-propionyl]-pyrrolidine-2-carbonyl}-amino)-4-oxo-butyric acid] | 1 to 2 µM
0.01 to 1 µM | 2.5 to 7.5 µM | – | – | C[C@H](NC(=O)c1cnc2ccccc2n1)C(=O)N1CCC[C@H]1C(=O)N[C@H](C=O)CC(=O)O [Example 122j, 4-Oxo-3-[(1-{2-[(quinoxaline-2-carbonyl)-amino]-propionyl}-pyrrolidine-2-carbonyl) -amino]-butyric acid] | > 2 µM
0.01 to 1 µM | < 2.5 µM | – | – | C[C@H](NC(=O)c1ccc(N)c(C(F)(F)F)c1)C(=O)N1CCC[C@H]1C(=O)N[C@H](C=O)CC(=O)O [Example 122l, 3-({1-[2-(4-Amino-3-trifluoromethyl-benzoylamino)-propionyl]-pyrrolidine-2-carbonyl}-amino)-4-oxo-butyric acid] | 0.5 to 1 µM
0.01 to 1 µM | 2.5 to 7.5 µM | A (category “A” indicates <5%) | B (Category “B” indicates 0.25-0.49) | COc1cc(NC(C)=O)c(Cl)cc1C(=O)N[C@@H](C)C(=O)N1CCC[C@H]1C(=O)N[C@H](C=O)CC(=O)O [Example 122r, 3-({1-[2-(4-Acetylamino-5-chloro-2-methoxy-benzoylamino)-propionyl]-pyrrolidine-2-carbonyl}-amino)-4-oxo-butyric acid] | –

SMILES | Ki (Caspase-1) | IC50 [1] | Biliary Excretion [2] | f (g) Xf (h) [2] | IC50 [3]
CC(C)(C)[C@H](NC(=O)c1ccc(N)c(Cl)c1)C(=O)N1CCCC1C(=O)N[C@H](C=O)CC(=O)O (stereo partly shown) [Example 73, 3-({-[2-(4-Amino-3-chloro-benzoylamino)-3,3-dimethyl-butyryl]-pyrrolidine-2-carbonyl}-amino)-4-oxo-butyric acid] | < 0.01 µM | < 2.5 µM | – | – | 0.5 to 1 µM
